One experiment concerns the target E. coli GUS (Escherichia coli (strain K12), UniProt P05804). The note with it: 30 minutes incubation, then NAD+ and UDH.
Experiment [1] addresses Purified bacterial β-glucuronidases (Escherichia coli, UniProt P05804). It is filed as biochemical. The note with it: PNPG substrate, 5 nM enzyme. An excerpt:
Successful drug candidate compounds were subjected to numerous biochemical and cellular assays. Purified bacterial β-glucuronidases were challenged with compounds to determine inhibition properties in a standard, robust activity assay, utilizing p-nitrophenyl glucuronide (PNPG) as the enzymatic substrate.

Experiment [2] deals with β-glucuronidase activity in live, cultured bacterial cells. In words: β-glucuronidase activity in live, cultured bacterial cells (PNPG substrate). The class given is cell-based. The note with it: 2 hour incubation.
Experiment [3] has as its system GUS activity in live E. coli. The experiment in a line: PNPG-PNP GUS cleavage assay, live E. coli.
In another experiment the target is purified E. coli GUS (Escherichia coli (strain K12), UniProt P05804). In words: PNPG-PNP GUS cleavage assay, purified E. coli GUS. It is filed as biochemical. The note with it: preincubation one minute to four hours.
Where [4] appears, read: parent compound, read-out: Cell Based Inhibition IC50 (nM) Parent.

Several values for one entry are separate records, joined by “and”; a condition that tells them apart may be missing. Equal values may be shown once. Entries after “also recorded” stand apart in the source; their conditions may differ. Read-outs that look alike come from different tables or passages of the source.

Sequence of E. coli GUS (P05804 whole entry, looked up): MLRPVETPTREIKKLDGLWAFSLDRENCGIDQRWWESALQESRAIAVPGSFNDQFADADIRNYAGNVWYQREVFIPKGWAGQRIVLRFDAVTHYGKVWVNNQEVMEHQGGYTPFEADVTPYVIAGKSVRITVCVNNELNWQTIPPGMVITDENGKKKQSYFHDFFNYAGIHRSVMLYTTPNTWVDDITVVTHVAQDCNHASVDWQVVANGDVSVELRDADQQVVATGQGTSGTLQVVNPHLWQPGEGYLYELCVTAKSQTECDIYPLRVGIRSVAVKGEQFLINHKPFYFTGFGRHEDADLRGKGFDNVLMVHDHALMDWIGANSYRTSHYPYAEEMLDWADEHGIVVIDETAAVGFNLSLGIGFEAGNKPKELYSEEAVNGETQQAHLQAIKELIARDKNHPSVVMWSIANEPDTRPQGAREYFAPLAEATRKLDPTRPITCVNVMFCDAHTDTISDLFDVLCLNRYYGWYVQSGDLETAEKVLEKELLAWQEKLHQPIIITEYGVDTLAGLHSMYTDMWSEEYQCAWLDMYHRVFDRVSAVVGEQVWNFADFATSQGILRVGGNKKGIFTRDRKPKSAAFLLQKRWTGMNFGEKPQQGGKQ
Sequence of purified E. coli GUS (P05804 whole entry, looked up): as above

With “chenodeoxycholate-glucuronide [reference compound]”, the “free GA / NADH formation after incubation with E. coli GUS (cleavage by GUS)” value at E. coli GUS is given as “detected only for the positive control”. One may read the IC50 as the concentration needed to halve the response being measured. `Cc1cc(C)c2[nH]c(=O)c(CN(CCO)C(=O)Nc3cccc(C(C)C)c3)cc2c1` [Ref #41′, 1-[(6,8-dimethyl-2-oxo-1H-quinolin-3-yl)methyl]-1-(2-hydroxyethyl)-3-(3-isopropylphenyl)urea] yielded an IC50 in experiment [1] of 6730 nM. Regarding `CCOc1ccc(NC(=O)N(CCO)Cc2cc3cc(C)cc(C)c3[nH]c2=O)cc1`, in experiment [2] (setting [4]), the half-maximal inhibitory concentration (IC50) stood at 890 nM. Consider `Cc1cc(C)c2[nH]c(=O)c(CN(CCO)C(=O)Nc3cccnc3)cc2c1` [Ref #18′, 1-[(6,8-dimethyl-2-oxo-1H-quinolin-3-yl)methyl]-1-(2-hydroxyethyl)-3-(3-pyridyl)urea], for which, in experiment [1], the IC50 was above 50000 nM. On the same count and under the same terms, in the case of `Cc1cc(C)c2[nH]c(=O)c(C(C)N(CCO)C(=O)Nc3ccccc3C)cc2c1` (stereo not shown) [Ref #31′, 1-[1-(6,8-dimethyl-2-oxo-1H-quinolin-3-yl)ethyl]-1-(2-hydroxyethyl)-3-(o-tolyl)urea] it was above 50000 nM; in that of `Cc1cc(C)c2[nH]c(=O)c(C(C)N(CCO)C(=O)Nc3ccccc3C(C)C)cc2c1` (stereo not shown) [Ref #29′, 1-[1-(6,8-dimethyl-2-oxo-1H-quinolin-3-yl)ethyl]-1-(2-hydroxyethyl)-3-(2-isopropylphenyl)urea], 6440 nM; in that of `Cc1cccc(NC(=O)N(CCO)Cc2cc3cc(C)cc(C)c3[nH]c2=O)c1` [Ref #38′, 1-[(6,8-dimethyl-2-oxo-1H-quinolin-3-yl)methyl]-1-(2-hydroxyethyl)-3-(m-tolyl)urea], 1660 nM.

Turning to `CCOc1ccc(NC(=S)N(CCO)Cc2cc3cc(C)cc(C)c3[nH]c2=O)cc1` [Inh1, reference compound], the IC50 in experiment [2] (setting [4]) came out at 890 nM. Turning to `CCOc1ccc(NC(=S)N(CCO[C@@H]2O[C@H](C(=O)O)[C@@H](O)[C@H](O)[C@H]2O)Cc2cc3cc(C)cc(C)c3[nH]c2=O)cc1` [Inh1-G], the “free GA / NADH formation after incubation with E. coli GUS (cleavage by GUS)” value on E. coli GUS is “No free GA was detected; also recorded: does not cleave”. Also, the IC50 in experiment [2] (glucuronide of the compound, read-out: Cell Based Inhibition IC50 (nM) Glucuronide) was 8.8 nM; in experiment [3] (read-out: IC50 in live E. coli, after 4 hr incubation), 1 nM; against purified E. coli GUS, around 1000 nM. Moreover, the “increase in potency in live E. coli” value in experiment [3] (1-min pre-incubation) was “approximately 20 fold”; in experiment [3] (2-hr pre-incubation), around 100 fold; in experiment [3] (4-hr pre-incubation) it was ~1000 fold and > 1000 fold. For the compound `Cc1cc(C)c2[nH]c(=O)c(C(C)N(CCO)C(=O)Nc3ccc(F)cc3I)cc2c1` (stereo not shown) [Ref #30′, 1-[1-(6,8-dimethyl-2-oxo-1H-quinolin-3-yl)ethyl]-3-(4-fluoro-2-iodo-phenyl)-1-(2-hydroxyethyl)urea], the IC50 in experiment [1] came out at 13000 nM. Turning to `Cc1cc(C)c2[nH]c(=O)c(CN(CCO)C(=O)Nc3ccccc3-c3ccccc3)cc2c1` [Ref #14′, 1-[(6,8-dimethyl-2-oxo-1H-quinolin-3-yl)methyl]-1-(2-hydroxyethyl)-3-(2-phenylphenyl)urea], in experiment [1], the half-maximal inhibitory concentration (IC50) was 6160 nM and 6440 nM. Still for that read-out and setting: the value for `C#Cc1cc(F)ccc1NC(=O)N(CCO)Cc1cc2cc(C)cc(C)c2[nH]c1=O` [Ref #45′, 1-[(6,8-dimethyl-2-oxo-1H-quinolin-3-yl)methyl]-3-(2-ethynyl-4-fluoro-phenyl)-1-(2-hydroxyethyl)urea] was 1100 nM; that for `COc1ccc(NC(=O)N(CCO)C(C)c2cc3cc(C)cc(C)c3[nH]c2=O)cc1` (stereo not shown) [Ref #34′, 1-[1-(6,8-dimethyl-2-oxo-1H-quinolin-3-yl)ethyl]-1-(2-hydroxyethyl)-3-(4-methoxyphenyl)urea] was above 50000 nM.

The values are drawn from patent publication US12017994B2 (SYMBERIX, INC., priority 2017, dated 2024).
